Tests used:
BeWo = experiment: proliferating ability of cell line cultured with P4 or COR; format: cell-based, human; details: 200 μM or less, cultured 10 days
Method: (§1) Each of human choriocarcinoma cell line JEG-3, BeWo, and embryonic kidney cell line HEK293 was cultured for 10 days at 37° C. in 5% CO2 in a 10% Fetal Calf Serum (FCS)-containing DMEM (Gibuco) to which water-soluble progesterone (P4; water soluble) (Sigma) or cortisol (COR) (Sigma) was added in various concentrations. Each of mouse myeloma cell line P3-X63-Ag8-U1 (P3X) and mouse lymphoma cell line A20 was cultured for 3 days at 37° C. in 5% CO2 in 10% FCS-containing RPMI 1640 to which P4 or COR was added in various concentrations. Proliferation of the cells was evaluated by measuring the number of the cells.

HEK293 = experiment: as above; format: cell-based, human; details: 200 μM or less, cultured 10 days
Method: as §1

JEG-3 = experiment: as above; format: cell-based, human; details: 200 μM or less, cultured 10 days
Method: as §1

A20 = experiment: as above; format: cell-based, mouse; details: 2 μM or less, cultured 3 days
Method: as §1

P3-X63-Ag8-U1 (P3X) = experiment: as above; format: cell-based, mouse; details: 2 μM or less, cultured 3 days
Method: as §1

[1] = tested on: Human peripheral blood mononuclear cells (PBMCs); experiment: number of cells of TSST-1-stimulated PBMCs cultured with P4 or COR; format: cell-based; details: PBMCs + TSST-1; 3 days
Method: (§2) The PBMCs (final concentration: 1×10^6/mL) were cultured for 3 days at 37° C. in 5% CO2 in 10% FCS-containing RPMI 1640 to which P4 or COR was added in various concentrations with stimulation by 1 μg/mL of toxic shock syndrome toxin-1 (TSST-1). These cells were collected, washed with PBS, and dispensed into a Fisher tube in an amount of 1×10^6 cells/tube. For analysis of a human cell surface marker, a fluorescent-labeled anti-human monoclonal antibody (mAbs) was used. The cells were stained with the mAbs, a reaction was performed for 15 minutes at 4° C., and the resultant was washed with PBS containing 1% (w/v) BSA. Then, the resultant was analyzed by FACS Fortessa, or FACS Verse (BD Bioscience, Franklin Lakes, NJ). In the analysis, a leukocyte gated or lymphocyte gated cells were further gated by expression of human CD45, and then the analysis was performed. A culture supernatant was collected, and 25 μL thereof was dispensed to quantitatively determine cytokine with Legend Plex™ kit from BioLegend.

[2] = tested on: CD4 and CD8 T cells in PBMCs; experiment: FCM analysis of activation/exhaustion markers (CD25, PD-1) on T cells of TSST-1-stimulated PBMCs; format: cell-based, human; details: 20 to 200 μM
Method: as §2

B cell in PBMCs [3] = experiment: FCM analysis of PD-1 on B cells of TSST-1-stimulated PBMCs; format: cell-based, human; details: TSST-1 and P4/COR stimulation; data not shown
Method: as §2

[4] = tested on: CD4 and CD8 T cells in PBMCs; experiment: restimulation experiment (transient vs continuous P4/COR), PD-1/PD-L1 on T cells; format: cell-based, human; details: TSST-1 3 days
Method: (§3) In a restimulation experiment, PBMCs were cultured for 6 hours at 37° C. in 5% CO2 in 10% FCS-containing RPMI 1640 to which 200 μM P4 or COR was added. These cells were washed, adjusted to a final concentration of 1×10^6/mL, and cultured again in the presence or absence of 200 μM P4 or COR with stimulation by 1 μM TSST-1. After 72 hours, the resultant cells were collected to be analyzed by FCM.

B cell in PBMCs [5] = experiment: restimulation experiment (transient vs continuous P4/COR), PD-L1 on B cells; format: cell-based, human; details: addition of 200 μM; TSST-1 3 days
Method: as §3

[6] = tested on: Hu-PBMC-NOG (GVHD onset model); experiment: GVHD onset model: human PBMCs transplanted to NOG mouse, P4 or COR administered subcutaneously; format: in vivo; details: 2 mg/head subcutaneously twice a week, 4 weeks
Method: In the analysis using the GVHD model, PBMCs prepared in the same manner as described above were washed with PBS, and 2.5×10^6 PBMCs were intravenously transplanted to each 8- to 9-week-old NOG mouse. […] At the same time as the administration, the weight was measured. After 4 weeks, the mouse was anesthetized to collect heart blood, and euthanized. From various lymphoid organs excised, human cells were prepared, hemolyzed, and then subjected to FCM. Besides, the lung and the liver were excised, and immunohistochemically stained as follows. A tissue of the mouse was immobilized with 20% formalin (Wako Pure Chemical Industries, Ltd.), and embedded in paraffin. The obtained paraffin block was sliced, and the resultant was subjected to deparaffinization, mounted on a slide glass, and stained with hematoxylin and eosin (HE). In immunohistochemical staining with an anti-human CD45 antibody, the slide was subjected to a heat treatment at 97° C. for 20 minutes, and subjected to an endogenous peroxidase treatment through a reaction with 0.3% H2O2/MetOH at room temperature for 10 minutes. Thereafter, the resultant was blocked with 1% goat serum, and anti-human CD45 (Dako) was added thereto, followed by a reaction overnight at 4° C. The resultant slide was washed 3 times with 0.01 M PBS for 5 minutes, and colored with a DAB solution. The resultant was washed with running water for 3 minutes, and stained with hematoxylin, followed by dehydration and penetration/encapsulation.

PBMC-NOG-hIL-4-Tg mouse = experiment: transplantation of P4/COR-cultured PBMCs to NOG-hIL-4-Tg mouse immunized with CH401MAP; format: in vivo; details: PBMCs cultured with 200 μM for 6 hours before transplantation
[7] = tested on: B cell (CD19 gated) in human PBMCs; experiment: atezolizumab addition experiment, PD-L1/PD-1 expression on B cell by FCM; format: cell-based; details: 3 days
Method: (§4) As for an experiment of atezolizumab addition, 0 to 200 μM P4 or COR, 1 μM TSST-1, and 100 μg/mL atezolizumab were added to PBMCs, and the resultant was cultured for 72 hours at 37° C. in 5% CO2, followed by analysis by FCM.

[8] = tested on: T cell (CD3 gated) in human PBMCs; experiment: atezolizumab addition experiment, PD-L1/PD-1 expression on T cell by FCM; format: cell-based; details: 3 days
Method: as §4

humanized mouse = experiment: PD-L1/PD-1 expression in humanized mouse in vivo after atezolizumab administration; details: data not shown
[9] = tested on: human breast cancer cell line MDA-MB-231; experiment: cancer-bearing CMV-NOG-hIL-4-Tg mouse with MDA-MB-231 and human PBMCs transplanted; format: in vivo
Method: 5×10^6 MDA-MB231 was subcutaneously administered to a ventral portion of a 6- to 7-week-old NOG-hIL-4-Tg mouse (a hIL-4 concentration in blood of 100 pg/mL or more). Diameters of the tumor along the ventral and in a direction at a right angle to the ventral were measured with a caliper every 2 days from one week after the administration, and the product thereof was defined as the size of the tumor. Two weeks after the tumor transplantation, 5×10^6 PBMCs were intravenously transplanted to the cancer-bearing mice and non-cancer-bearing mice as a control group. The measurement of the tumor diameters was similarly continued after the PBMC transplantation. The non-cancer bearing mice were divided into two groups, and PBS or atezolizumab ([…], 3 times (every 10 days)) was administered to each group. The cancer-bearing mice were divided into three groups, and PBS, atezolizumab ([…], 3 times (every 10 days)), or liposome (amount equivalent to 225 μg of atezolizumab and 40 μg of P4/dose, 6 times (every 5 days)) was administered to each group.
After 4 weeks, the mice were anesthetized to collect heparinized blood, and were euthanized. From various lymph tissues collected, cells were collected, and erythrocytes were removed therefrom with a hemolysis buffer to prepare a cell suspension. The number of cells therein was counted, and a human leukocyte fraction was subjected to flowcytometry (FCM) analysis. A tumor tissue was used for immunohistochemical staining.
For human immunocytochemistry, the same antibodies as those used in Example 1 were used. Cells were reacted with an appropriate amount of each of various, fluorescent-labeled antibodies for 15 minutes at 4° C., and washed with PBS containing 1% BSA. The resultant cells were analyzed with FACS Fortessa or Verse (manufactured by BD Bioscience). Living cells were gated, and human CD45-positive cells were further gated to obtain a human leukocyte fraction. These cells were further divided with a cell surface marker to obtain lymphocyte subsets. For data analysis, FlowJo (BD) was used.
A tissue of the mouse was immobilized with 20% formalin (manufactured by Wako Pure Chemical Industries, Ltd.), and embedded in paraffin. The resultant paraffin block was sliced, and the resultant was subjected to deparaffinization, mounted on a slide glass, and stained with hematoxylin and eosin (HE). In immunohistochemical staining with an anti-human CD8 antibody, the slide was subjected to a heat treatment at 120° C. for 20 minutes, and subjected to an endogenous peroxidase treatment through a reaction with 0.3% H2O2/MetOH at room temperature for 10 minutes. Thereafter, the resultant was blocked with 1% goat serum, and anti-human CD8 (manufactured by Dako) was added thereto, followed by a reaction at 25° C. for 60 minutes. The resultant slide was washed 3 times with 0.01 M PBS for 5 minutes, followed by a reaction at 25° C. for 60 minutes with simple stain MAX-PO (manufactured by Nichirei Biosciences Inc.). The resultant slide was washed 3 times with 0.01 M PBS for 5 minutes, and colored with a DAB solution. The resultant was washed with running water for 3 minutes, and stained with hematoxylin, followed by dehydration and penetration/encapsulation.

[10] = atezolizumab 450 pg/head/dose 3 times, liposome equivalent to 225 μg atezolizumab and 40 μg P4/dose 6 times, 4 weeks

Q: Which results are given for C[C@]12CCC(=O)C=C1CC[C@@H]1[C@@H]2[C@@H](O)C[C@@]2(C)[C@H]1CC[C@]2(O)C(=O)CO [COR, cortisol]?
A: cell proliferating ability (BeWo): minimally changed; cell proliferating ability (HEK293): minimally changed; cell proliferating ability (JEG-3): minimally changed; proliferation (A20): almost completely suppressed; proliferation (P3-X63-Ag8-U1 (P3X)): almost completely suppressed; number of cells vs control group [1]: substantially no difference; PD-1 expression on T cells ([2]; day 3): not suppressed depending on the COR concentration; activation marker-negative (non-activated) T cells ([2]; day 3): not largely increased; number of activated cells ([2]; day 3, data not shown): reduced; ratio of later-phase activated (CD25-positive PD-1-positive) T cells ([2]; CD4 and CD8 T cells, day 3): did not depend on the COR concentration; PD-1 expression on B cell (B cell in PBMCs [3]): not increased; ratio of later-phase activated (PD-1/PD-L1-positive) cells ([4]; CD4 and CD8 T cells, continuously added, 200 μM): not suppressed as much as that obtained by P4 addition; CD8 T cell activation vs control group ([4]; transiently added (200 μM 6 hours, washed)): significantly suppressed; PD-L1 expression in B cell (B cell in PBMCs [5]): tended to reduce PD-L1 expression; GVHD symptoms [6]: reduced GVHD symptoms; lymphocyte engraftment [6]: lymphocyte engraftment failure was also caused; lymphocytes [6]: reduced lymphocytes; engraftment ability of transplanted PBMCs (PBMC-NOG-hIL-4-Tg mouse; analysis after 4 weeks): low engraftment ability; specific antibody production (CH401MAP) (PBMC-NOG-hIL-4-Tg mouse; plasma after 4 weeks): suppressed; PD-L1 expression in a B cell ([7]; 0 to 200 μM, TSST-1): showed PD-L1 expression

Q: How did the “PD-1 expression in a T cell” value [8] turn out when atezolizumab was run?
A: Its value is “increased”.

Q: What about the “PD-L1 expression in a T cell” value [8] of the same compound?
A: The value was “reduced”.

Q: And the “PD-1 expression in a B cell” value [7]?
A: Its value is “increased”.

Q: What about the PD-1 expression (humanized mouse) of the same compound?
A: The PD-1 expression was “tended to be increased”.

Q: And the PD-L1 expression (humanized mouse)?
A: The PD-L1 expression was “tended to be reduced”.

Q: What about the “engraftment of a B cell (CD19-positive) in spleen cells” value [9, 10] of the same compound?
A: The value was “reduced”.

Q: What about the “ratio of a T cell (CD3-positive) in spleen cells” value [9, 10] of the same compound?
A: The value was “increased”.

Q: What about the “ratio of the CD8-positive killer T cell in spleen cells” value [9, 10] of the same compound?
A: Its value is “increased”.

Q: And the “increase of the tumor (tumor diameter)” value ([9]; compared with PBS administration group)?
A: Its value is “suppressed”.

Q: And the “human (killer) T cell infiltration into the tumor mass” value ([9]; histochemical staining (anti-human CD8), liposome compared with atezolizumab alone)?
A: The value was “obviously observed”.
